Experimental data reported in PubChem BioAssay AID248 (DTP/NCI, 2004).
Where “and” joins values, the source holds several entries; their conditions need not be identical. Identical values can stand only once. Inconclusive results and toxic doses are left out. Cut-off read from the data, not from the text of the source: active = T/C of 150% or more; inactive = T/C below 125%.

Tested on: L1210 leukemia ip in BDF1 mice, survival T/C
Assay: NCI In Vivo Anticancer Drug Screen. Data for tumor model L1210 Leukemia (intraperitoneal) in B6D2F1 (BDF1) mice
Settings: endpoint: mean survival time, higher = longer survival
How it was run: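 Ratio derived from survival: compound-dosed mice over vehicle-dosed mice, all bearing a transplantable tumor.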

[1] = dose: 200.0 mg/kg/injection, schedule: Q01DX001 (ip), vehicle: saline with Tween-80
[2] = dose: 100.0 mg/kg/injection, schedule: Q01DX001 (ip), vehicle: saline
[3] = dose: 200.0 mg/kg/injection, schedule: Q01DX001 (ip), vehicle: saline
[4] = dose: 200.0 mg/kg/injection, schedule: Q04DX002 (ip), vehicle: saline with Tween-80
[5] = dose: 100.0 mg/kg/injection, schedule: Q01DX009 (ip), vehicle: Klucel (hydroxypropylcellulose) (HPC)
[6] = dose: 100.0 mg/kg/injection, schedule: Q04DX003 (ip), vehicle: Klucel (hydroxypropylcellulose) (HPC)
[7] = dose: 200.0 mg/kg/injection, schedule: Q01DX009 (ip), vehicle: Klucel (hydroxypropylcellulose) (HPC)
[8] = dose: 200.0 mg/kg/injection, schedule: Q04DX003 (ip), vehicle: Klucel (hydroxypropylcellulose) (HPC)
[9] = dose: 400.0 mg/kg/injection, schedule: Q01DX009 (ip), vehicle: Klucel (hydroxypropylcellulose) (HPC)
[10] = dose: 400.0 mg/kg/injection, schedule: Q04DX003 (ip), vehicle: Klucel (hydroxypropylcellulose) (HPC)
[11] = dose: 100.0 mg/kg/injection, schedule: Q04DX002 (ip), vehicle: saline with Tween-80
[12] = dose: 75.0 mg/kg/injection, schedule: Q01DX001 (ip), vehicle: saline
[13] = dose: 150.0 mg/kg/injection, schedule: Q01DX001 (ip), vehicle: saline
[14] = dose: 25.0 mg/kg/injection, schedule: Q01DX009 (ip), vehicle: Klucel (hydroxypropylcellulose) (HPC)
[15] = dose: 25.0 mg/kg/injection, schedule: Q04DX002 (ip), vehicle: Klucel (hydroxypropylcellulose) (HPC)
[16] = dose: 50.0 mg/kg/injection, schedule: Q01DX009 (ip), vehicle: Klucel (hydroxypropylcellulose) (HPC)
[17] = dose: 100.0 mg/kg/injection, schedule: Q04DX002 (ip), vehicle: Klucel (hydroxypropylcellulose) (HPC)
[18] = dose: 150.0 mg/kg/injection, schedule: Q01DX009 (ip), vehicle: Klucel (hydroxypropylcellulose) (HPC)

Measured: T/C

CCCSc1ccc(N2C(N)=NC(N)=NC2(C)C)cc1
inactive: dose: 12.5 mg/kg/injection, schedule: Q01DX001 (ip), vehicle: saline 98 % of control | dose: 12.5 mg/kg/injection, schedule: Q04DX003 (ip), vehicle: saline 98 % of control | dose: 18.75 mg/kg/injection, schedule: Q01DX009 (ip), vehicle: saline with Tween-80 101 % of control | dose: 25.0 mg/kg/injection, schedule: Q01DX001 (ip), vehicle: saline 108 % of control | dose: 25.0 mg/kg/injection, schedule: Q04DX003 (ip), vehicle: saline 93 % of control | dose: 37.5 mg/kg/injection, schedule: Q01DX009 (ip), vehicle: saline with Tween-80 96 % of control | dose: 50.0 mg/kg/injection, schedule: Q01DX001 (ip), vehicle: saline 108 % of control | dose: 50.0 mg/kg/injection, schedule: Q04DX003 (ip), vehicle: saline 104 % of control | dose: 75.0 mg/kg/injection, schedule: Q04DX003 (ip), vehicle: saline 97 % of control

COC(=O)c1ccc(N(C)CC(=O)CNc2nc(N)nc(SCc3ccccc3)c2[N+](=O)[O-])cc1
inactive: dose: 100.0 mg/kg/injection, schedule: Q01DX001 (ip), vehicle: saline with Tween-80 88 % of control | [1] 89 % of control | dose: 400.0 mg/kg/injection, schedule: Q01DX001 (ip), vehicle: saline with Tween-80 88 % of control

COc1cc2c(cc1OC)C(C(C)C)NCC2O (centres undefined)
inactive: [2] 98 % of control | [3] 96 % of control

O=C(C(=O)N1CC2OC2C1)N1CC2OC2C1 (centres undefined)
active: [4] 239 % of control
inactive: dose: 29.0 mg/kg/injection, schedule: Q04DX002 (ip), vehicle: saline with Tween-80 95 % of control | dose: 39.0 mg/kg/injection, schedule: Q01DX001 (ip), vehicle: saline with Tween-80 98 % of control | dose: 44.0 mg/kg/injection, schedule: Q04DX002 (ip), vehicle: saline with Tween-80 100 % of control | dose: 59.0 mg/kg/injection, schedule: Q01DX001 (ip), vehicle: saline with Tween-80 102 % of control | dose: 67.0 mg/kg/injection, schedule: Q04DX002 (ip), vehicle: saline with Tween-80 100 % of control | dose: 88.0 mg/kg/injection, schedule: Q01DX001 (ip), vehicle: saline with Tween-80 97 % of control | dose: 133.0 mg/kg/injection, schedule: Q01DX001 (ip), vehicle: saline with Tween-80 97 % of control | dose: 150.0 mg/kg/injection, schedule: Q04DX002 (ip), vehicle: saline with Tween-80 102 % of control | [1] 97 % of control | dose: 225.0 mg/kg/injection, schedule: Q04DX002 (ip), vehicle: saline with Tween-80 105 % of control | dose: 300.0 mg/kg/injection, schedule: Q01DX001 (ip), vehicle: saline with Tween-80 100 % of control

COc1ccc(OC2CCCCC2OS(C)(=O)=O)cc1 (centres undefined)
inactive: dose: 100.0 mg/kg/injection, schedule: Q01DX001 (ip), vehicle: Klucel (hydroxypropylcellulose) (HPC) 104 % of control | [5] 96 % of control | [6] 102 % of control | dose: 200.0 mg/kg/injection, schedule: Q01DX001 (ip), vehicle: Klucel (hydroxypropylcellulose) (HPC) 103 % of control | [7] 104 % of control | [8] 102 % of control | dose: 400.0 mg/kg/injection, schedule: Q01DX001 (ip), vehicle: Klucel (hydroxypropylcellulose) (HPC) 108 % of control | [9] 106 % of control | [10] 101 % of control

C(=C1/CCCc2ccccc21)/c1ccccn1
inactive: dose: 100.0 mg/kg/injection, schedule: Q01DX001 (ip), vehicle: other 98 % of control | dose: 200.0 mg/kg/injection, schedule: Q01DX001 (ip), vehicle: other 103 % of control | dose: 400.0 mg/kg/injection, schedule: Q01DX001 (ip), vehicle: other 90 % of control

O=C1OC(c2ccco2)=N/C1=C\c1ccc(Cl)c(Cl)c1
inactive: [11] 108 % of control | [4] 105 % of control | dose: 400.0 mg/kg/injection, schedule: Q04DX002 (ip), vehicle: saline with Tween-80 108 % of control

ClC1(c2ccccc2)C2CCCCC21 (centres undefined)
inactive: [12] 100 % of control | [13] 100 % of control

C[Si](C)(C)c1cc(F)c(F)c(F)c1F
inactive: [5] 100 % of control | [6] 97 % of control | [7] 102 % of control | [8] 102 % of control | [9] 98 % of control | [10] 103 % of control

CC1(C(Cl)(Cl)Cl)C=CC(O)C=C1 (centres undefined)
inactive: [14] 90 % of control | [15] 87 % of control | [16] 93 % of control | dose: 50.0 mg/kg/injection, schedule: Q04DX002 (ip), vehicle: Klucel (hydroxypropylcellulose) (HPC) 93 % of control | [5] 97 % of control and 90 % of control | [17] 97 % of control and 89 % of control | [18] 93 % of control

Cc1ccc(C)c(CCl)c1
inactive: [12] 101 % of control | [13] 95 % of control

COc1cc2c3c(c1O)C1(C=CC(=O)C=C1)CC3N(C)CC2 (centres undefined)
inactive: [2] 92 % of control | [3] 94 % of control | dose: 400.0 mg/kg/injection, schedule: Q01DX001 (ip), vehicle: saline 90 % of control

Cc1cccc(C(=O)NCC(=O)O)c1
inactive: dose: 50.0 mg/kg/injection, schedule: Q01DX009 (ip), vehicle: saline 98 % of control | dose: 100.0 mg/kg/injection, schedule: Q01DX009 (ip), vehicle: saline 94 % of control | [11] 99 % of control | dose: 200.0 mg/kg/injection, schedule: Q01DX009 (ip), vehicle: saline 91 % of control | [4] 96 % of control

CC(=O)Oc1ccccc1C(C)=O
inactive: [5] 97 % of control | [6] 96 % of control | [7] 97 % of control | [8] 98 % of control | [10] 104 % of control

CCCCCCCCc1ccc(OC(C)OCCOCCOCC)cc1 (centres undefined)
inactive: dose: 100.0 mg/kg/injection, schedule: Q04DX002 (ip), vehicle: saline 88 % of control | dose: 200.0 mg/kg/injection, schedule: Q04DX002 (ip), vehicle: saline 88 % of control | dose: 400.0 mg/kg/injection, schedule: Q04DX002 (ip), vehicle: saline 98 % of control

CCN(CCOC(=O)Nc1ccc(F)cc1)c1ccccc1
inactive: [5] 98 % of control | [7] 98 % of control | [9] 110 % of control

COC(=O)c1ccccc1NC(=O)c1ccccc1C(=O)O
inactive: [14] 100 % of control | [16] 103 % of control | [5] 93 % of control and 102 % of control | [17] 98 % of control | [18] 100 % of control | dose: 225.0 mg/kg/injection, schedule: Q01DX009 (ip), vehicle: Klucel (hydroxypropylcellulose) (HPC) 97 % of control | dose: 335.0 mg/kg/injection, schedule: Q01DX009 (ip), vehicle: Klucel (hydroxypropylcellulose) (HPC) 102 % of control

CC1=CC(C)(C)NC(=S)N1c1ccc(O)cc1
inactive: dose: 75.0 mg/kg/injection, schedule: Q01DX009 (ip), vehicle: saline with Tween-80 92 % of control | dose: 150.0 mg/kg/injection, schedule: Q01DX009 (ip), vehicle: saline with Tween-80 101 % of control | dose: 300.0 mg/kg/injection, schedule: Q01DX009 (ip), vehicle: saline with Tween-80 90 % of control

N#CC(C#N)=Cc1ccc([N+](=O)[O-])s1
inactive: dose: 12.5 mg/kg/injection, schedule: Q04DX002 (ip), vehicle: Klucel (hydroxypropylcellulose) (HPC) 96 % of control | [15] 100 % of control

CCCCOc1ccc(OC(=O)Nc2cccc(C(C)=O)c2)cc1
inactive: [5] 108 % of control | [7] 96 % of control | [9] 96 % of control

CCC(CC)CC1CN2CCc3cc(OC)c(OC)cc3C2CC1(O)CC (centres undefined)
inactive: dose: 3.12 mg/kg/injection, schedule: Q01DX009 (ip), vehicle: Klucel (hydroxypropylcellulose) (HPC) 93 % of control | dose: 6.25 mg/kg/injection, schedule: Q01DX009 (ip), vehicle: Klucel (hydroxypropylcellulose) (HPC) 97 % of control | dose: 12.5 mg/kg/injection, schedule: Q01DX009 (ip), vehicle: Klucel (hydroxypropylcellulose) (HPC) 109 % of control | [14] 119 % of control | dose: 25.0 mg/kg/injection, schedule: Q04DX003 (ip), vehicle: Klucel (hydroxypropylcellulose) (HPC) 115 % of control | [16] 97 % of control | dose: 50.0 mg/kg/injection, schedule: Q04DX003 (ip), vehicle: Klucel (hydroxypropylcellulose) (HPC) 99 % of control
